Columns and labels:
isolated canine islets = experiment: Islet-cystic (duct epithelial) transformation / transdifferentiation of isolated islets; assay type: cell-based; conditions: for cystic transformation, % of control: at 72 hours, islets pre-incubated prior to embedding in collagen, control = DMEM/F12-CT group; for ductal transformation in suspension with soluble matrix protein: islets in suspension in DMEM/F12-CT supplemented with soluble protein (50 μg/ml)
[1] = molecular target: integrins (on isolated canine islet cells) (dog); experiment: cell-based or functional assay

Row | Molecule | cystic transformation, % of control (isolated canine islets) | ductal transformation in suspension with soluble matrix protein (isolated canine islets) | also measured
1 | GRGDSP [reference compound] | 57 % of control |  | islet cell transdifferentiation after prior incubation of freshly isolated islets with peptide (isolated canine islets; prior incubation of islets with the peptide): partially blocked
2 | GRGESP [control peptide, reference compound] |  |  | influence on the transformation process (isolated canine islets; islets pre-incubated with peptide (400 μg/ml) prior to embedding in collagen): little influence
3 | fibronectin | 50 % of control | failed to undergo ductal transformation | 
4 | laminin | 50 % of control | failed to undergo ductal transformation | 
5 | GRGDSP [RGD-motif containing GRGDSP peptide] |  |  | islet-cystic transformation at 72 hours, percent of the control DMEM/F12-CT group [1]: 57 % of control
